Assay results reported in ChEMBL document CHEMBL1201862, “PubChem BioAssay data set” (2004).
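Cells were grown in 96-well plates and exposed to each compound for 48 hours at five concentrations; endpoints were interpolated linearly between bracketing concentrations, or set to the highest concentration if not reached. GI50 marks 50% less growth.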 The source made the active and inactive calls. No stated cut-off is given here; in the data, active = GI50 up to about 1.1 µM and inactive = higher.

Columns and labels:
Test in all cases: DTP human tumour cell line panel, 48 h
[1] = test system: A498
[2] = test system: MDA-MB-231
[3] = test system: SR
[4] = test system: NCI-H522
[5] = test system: LOX IMVI
[6] = test system: HCT-116
[7] = test system: HOP-62
[8] = test system: MCF7
[9] = test system: A549
[10] = test system: M14
[11] = test system: PC-3
[12] = test system: IGROV-1
[13] = test system: SF-295
[14] = test system: HCT-15
[15] = test system: CCRF-CEM
[16] = test system: K562
[17] = test system: SNB-75
[18] = test system: KM12
[19] = test system: OVCAR-3
[20] = test system: MOLT-4

SMILES | GI50 [1] | GI50 [2] | GI50 [3] | GI50 [4] | GI50 [5] | GI50 [6] | GI50 [7] | GI50 [8] | GI50 [9] | GI50 [10] | GI50 [11] | GI50 [12] | GI50 [13] | GI50 [14] | GI50 [15] | GI50 [16] | GI50 [17] | GI50 [18] | GI50 [19] | GI50 [20]
COc1cc(OC)c2c(=O)cc(-c3ccccc3F)[nH]c2c1 | 48.2 µM (inactive) | 76.7 µM (inactive) | 60.8 µM (inactive) | 27 µM (inactive) | 61.1 µM (inactive) | 38.3 µM (inactive) | 82.6 µM (inactive) | 54.5 µM (inactive) | 38.5 µM (inactive) | 39.1 µM (inactive) | 47.2 µM (inactive) | 37.5 µM (inactive) | 34.3 µM (inactive) | 28.6 µM | 88.9 µM (inactive) | 53.3 µM (inactive) | 33.9 µM (inactive) | 32.9 µM (inactive) | 57 µM (inactive) | 66.2 µM (inactive)
COc1cc(C2CC(C)(Nc3ccccc3)Oc3cc4c(cc32)OCO4)cc(OC)c1OC (stereo not given) | 2.97 µM (inactive) | 0.853 µM (active) | 0.239 µM (active) | 0.296 µM (active) | 0.256 µM (active) | 0.23 µM (active) | 0.192 µM (active) | 0.135 µM (active) | 2.14 µM (inactive) | 0.223 µM (active) | 0.251 µM (active) | 0.386 µM (active) | 0.199 µM (active) | 0.161 µM | 0.124 µM (active) | 0.0933 µM (active) | 3.49 µM (inactive) | 0.19 µM (active) | 0.219 µM (active) | 0.535 µM (active)
N#CC1=C(S)N(C2OC(CO)C(O)C(O)C2O)C(c2ccccc2)=CC1c1ccccc1 (stereo not given) | 59.3 µM (inactive) | 64.3 µM (inactive) | 35 µM (inactive) | 50.6 µM (inactive) | 28.1 µM (inactive) | 35.6 µM (inactive) | > 100 µM (inactive) | 43.1 µM (inactive) | > 100 µM (inactive) | 37.5 µM (inactive) | 30.7 µM (inactive) | 46 µM (inactive) | 34.3 µM (inactive) | 18.8 µM | 37.2 µM (inactive) | 30.1 µM (inactive) | 31.9 µM (inactive) | 66.1 µM (inactive) | 28.3 µM (inactive) | 29.8 µM (inactive)
C1CCN2CC34CC(CC5CCCN(C6CCCC3N6)C54)C2C1 (stereo not given) | > 100 µM (inactive) | > 100 µM (inactive) | > 100 µM (inactive) | > 100 µM (inactive) | > 100 µM (inactive) | > 100 µM (inactive) | > 100 µM (inactive) | > 100 µM (inactive) | > 100 µM (inactive) | > 100 µM (inactive) | > 100 µM (inactive) | > 100 µM (inactive) | > 100 µM (inactive) | > 100 µM | > 100 µM (inactive) | > 100 µM (inactive) | > 100 µM (inactive) | > 100 µM (inactive) | > 100 µM (inactive) | > 100 µM (inactive)
COc1ccc(C(=O)/C=C/c2ccc(Oc3cc(C(=O)/C=C/c4ccc(O)cc4)c(O)cc3OC)cc2)c(O)c1 [RHUSCHALCONE I] | 1.67 µM (inactive) | 3.63 µM (inactive) | 1.92 µM (inactive) | 2.81 µM (inactive) | 2.27 µM (inactive) | 1.87 µM (inactive) | 4.83 µM (inactive) | 4.41 µM (inactive) | 8.71 µM (inactive) | 4.74 µM (inactive) | 4.84 µM (inactive) | 2.59 µM (inactive) | 6.41 µM (inactive) | 2.43 µM | 2.27 µM (inactive) | 3.66 µM (inactive) | 5.27 µM (inactive) | 2.65 µM (inactive) | 4.3 µM (inactive) | 2.52 µM (inactive)
